The text below walks through data of US9260435B2, “Substituted imidazopyrazines as Akt kinase inhibitors” (Bayer Intellectual Property GmbH, priority 2012, dated 2016).

What all share (format): cell-based
Test [1] deals with KPL-4 breast cancer cell line. Nature of the test: Tumor cell proliferation assay (CellTiter-Glo, 72 h), KPL-4. The following applies: Homo sapiens, KPL4, 72 h drug exposure; for inhibition at 1.67 µM: read-out: KPL-4 median inhibition at 1.67 μM (%). The protocol: (§1) Biological Assay 4.0: Tumor Cell Proliferation Assays
(§2) Compounds were tested in a cell-based assay that measures the capacity of the compounds to inhibit tumour cell proliferation following a 72 h drug exposure. Cell viability is determined using CellTiter-Glow® (CTG, Promega, cat# G7571/2/3). The CellTiter-Glo® Luminescent Cell Viability Assay is a homogeneous method to determine the number of viable cells in culture. Detection is based on using the luciferase reaction to measure the amount of ATP from viable cells. The amount of ATP in cells correlates with cell viability. Within minutes after a loss of membrane integrity, cells lose the ability to synthesize ATP, and endogenous ATPases destroy any remaining ATP; thus the levels of ATP fall precipitously.
(§3) Cells were plated at 3000-5000 cells/well (depending on the cell lines) in 90 μL growth medium on MTPs (Corning; #3603, black plate, clear flat bottom). For each cell line assayed, cells were plated onto a separate plate for determination of […] at t=0 hour and t=72 hour time points. Following overnight incubation at 37° C., chemiluminescence values for the t=0 samples were determined after adding 10 μl medium and 100 μl CTG solution according to manufacture protocol. Plates for the t=72 hour time points were treated with compounds diluted into growth medium at ten times final concentration added in 10 μL to the cell culture plate. Cells were then incubated for 72 hours at 37° C. Chemiluminescence values for the t=72 hour samples were determined. […] Experiments were controlled using a reference compound as standard.
(§4) Preferred compounds of the present invention show in this assay an inhibition of cell growth of cell lines such as the KPL-4 breast cancer cell line and the MCF-7 breast tumour cell line ([…], hormone dependent) with a median IC50 of <10 μM, more preferably, median IC50≦1 μM.
Background: In ATP-based viability assays light output follows the ATP content of the culture.

Test [2] concerns MCF-7 breast tumour cell line. Nature of the test: Tumor cell proliferation assay (CellTiter-Glo, 72 h), MCF-7. The settings on record: Homo sapiens, MCF7, 72 h drug exposure; for inhibition at 1.67 µM: read-out: MCF-7 median inhibition at 1.67 μM (%). As for the experimental part:
as §1, §2, §3, §4

In test [3] the test system is phospho-AKT at S473. Kind of test: Cellular p-AKT1/2/3-S473 assay in KPL-4 cells. The following applies: Homo sapiens, KPL4; KPL-4 breast tumour cell line, 2 hours treatment; read-out: pAKT-S743 median IC50. The protocol:
The phospho-substrates of PI3K-AKT-mTOR axis were used as the readouts to reflect pathway inhibition. Cells were seeded at 60-80% confluency per well in 96-well cell culture plates. After overnight incubation at 37° C. 5% CO2, cells were treated with compounds and vehicle at 37° C. for 2 hours. […] All measurements where at least done in duplicates and confirmed by independent repetition. Alternatively pAKT-S473 was measured using the “Akt Duplex” of the MULTI-SPOT® Assay System (Fa. Meso Scale Discovery, Cat# N41100B-1) following manufacturers instructions. Each assay used 20 μg of protein extract and measured total AKT and p-AKT content simultaneously in one well. All measurements where at least done in duplicates and confirmed by independent repetition. Values for P-AKT are expressed as percentage of P-AKT level compared to total-AKT content of the extracts.

Test [4] deals with p-4E-BP1 at T70. Kind of test: Cellular p-4E-BP1-T70 assay in KPL-4 cells. The following applies: Homo sapiens, KPL4; KPL-4 breast tumour cell line, 2 hours treatment; read-out: P4EBP1-T70 median IC50. As for the experimental part: The molecular mechanism of action was investigated in a set of experiments to assess the inhibition of the PI3K-AKT-mTOR pathway in responsive cell lines such as KPL-4 breast tumour cell line (PIK3CA^H1047R, HER2^O/E and hormone independent). The phospho-substrates of PI3K-AKT-mTOR axis were used as the readouts to reflect pathway inhibition. Cells were seeded at 60-80% confluency per well in 96-well cell culture plates. After overnight incubation at 37° C. 5% CO2, cells were treated with compounds and vehicle at 37° C. for 2 hours. Thereafter, cells were lysed in 150 μl lysis buffer and the levels of phospho-AKT at T308 and S473 and p-4E-BP1 at T70 sites were determined with the corresponding AlphaScreen® SureFire® assay kits (Perkin Elmer: 4E-BP1 Assay Kit Cat # TRG4E2S10K; Akt 1/2/3 p-Ser 473 #TGRA4S500 and Akt 1/2/3 p-Thr 308 #TGRA3S500 as well as IgG detection Kit #6760617M) as described in the manuals. All measurements where at least done in duplicates and confirmed by independent repetition. Alternatively pAKT-S473 was measured using the “Akt Duplex” of the MULTI-SPOT® Assay System (Fa. Meso Scale Discovery, Cat# N41100B-1) following manufacturers instructions. Each assay used 20 μg of protein extract and measured total AKT and p-AKT content simultaneously in one well. All measurements where at least done in duplicates and confirmed by independent repetition. Values for P-AKT are expressed as percentage of P-AKT level compared to total-AKT content of the extracts.

What is called inhibition is the percentage by which the read-out fell short of the control. As a reminder, the IC50 is the concentration that inhibits the measured activity by half. Consider `COc1nc(C(N)=O)cn2c(-c3ccccc3)c(-c3ccc(C4(N)CCC4)cc3)nc12` [Example 8, 2-[4-(1-Aminocyclobutyl)phenyl]-8-methoxy-3-phenylimidazo[1,2-a]pyrazine-6-carboxamide], for which the figures for the inhibition at 1.67 µM in test [1] and in test [2] were 83.6% and 73.1%, respectively. The IC50 worked out at 0.15 µM in test [1], 0.27 µM in test [2], 0.0075 µM in test [3] and 0.018 µM in test [4].

With `NC(=O)c1cn2c(-c3ccccc3)c(-c3ccc(C4(N)CCC4)cc3)nc2cn1` [Example 6, 2-[4-(1-Aminocyclobutyl)phenyl]-3-phenylimidazo[1,2-a]pyrazine-6-carboxamide], the inhibition at 1.67 µM in test [1] was 79.5%; in test [2] it was 57.3%. For the same compound, the IC50 in test [1] was 0.29 µM; in test [2], 1.1 µM; in test [3], 0.02 µM; in test [4], 0.018 µM.

As for `COc1nc(Br)cn2c(-c3ccccc3)c(-c3ccc(C4(N)CCC4)cc3)nc12` [Example 3, 1-[4-(6-Bromo-8-methoxy-3-phenylimidazo[1,2-a]pyrazin-2-yl)phenyl]cyclobutanamine], the inhibition at 1.67 µM in test [1] amounted to 57%; in test [2], 46.2%. Also, the IC50 in test [1] stood at 1.7 µM; in test [2] it was 1.7 µM; in test [3], 0.19 µM; in test [4], 1.4 µM.

For `COC(=O)c1cn2c(-c3ccccc3)c(-c3ccc(C4(N)CCC4)cc3)nc2c(OC)n1` [Example 7, Methyl 2-[4-(1-aminocyclobutyl)phenyl]-8-methoxy-3-phenylimidazo[1,2-a]pyrazine-6-carboxylate], the results for the inhibition at 1.67 µM in test [1] and in test [2] were 22% and 72.3%, respectively. The half-maximal inhibitory concentration (IC50) worked out at 5.5 µM in test [1], 0.42 µM in test [2], 0.044 µM in test [3] and 0.043 µM in test [4].

As for `Cc1cn2c(-c3ccccc3)c(-c3ccc(C4(N)CCC4)cc3)nc2c(C)n1` [Example 2, 1-[4-(6,8-Dimethyl-3-phenylimidazo[1,2-a]pyrazin-2-yl)phenyl]-cyclobutanamine], the inhibition at 1.67 µM in test [1] is 68%; in test [2] it was 70.8%. In addition, the IC50 in test [1] was 0.71 µM; in test [2] it was 0.72 µM; in test [3], 0.027 µM; in test [4] it was 1.1 µM.

In the case of `CCc1cn2c(-c3ccccc3)c(-c3ccc(C4(N)CCC4)cc3)nc2c(OC)n1` [Example 4, 1-[4-(6-Ethyl-8-methoxy-3-phenylimidazo[1,2-a]pyrazin-2-yl)phenyl]cyclobutanamine], the inhibition at 1.67 µM in test [1] turned out to be 64.4%; in test [2] it was 72.4%. Besides, the IC50 in test [1] worked out at 1.2 µM; in test [2] it was 0.85 µM; in test [3] it was 0.085 µM; in test [4], 0.38 µM.
